The values that follow come from patent publication US20150250810A1, “D-TAGATOSE-BASED COMPOSITIONS AND METHODS FOR PREVENTING AND TREATING ATHEROSCLEROSIS, METABOLIC SYNDROME, AND SYMPTOMS THEREOF” (University of Kentucky Research Foundation, priority 2008, published 2015).

Data set [1] relates to LDLr-/- mice. In words: Body weight and adipose tissue characteristics in hypercholesterolemic mice fed sucrose- or TAG-enriched diet for sixteen weeks. It is filed as in vivo. The settings on record: for macrophage positive F4/80 immunostaining in adipose sections / adipocyte size: study end point; for body weight: enriched diet, sixteen weeks; for development of obesity (weight gain, adiposity, adipocyte hypertrophy): overall study conclusion. From the text: Low-density lipoprotein receptor male and female mice (LDLr^-/-) that were approximately eight weeks old were fed either a standard murine diet (“control”), a diet enriched with sucrose, or a diet enriched with TAG for sixteen weeks. The diets enriched with sucrose or TAG contained equivalents amounts (g/kg) of protein, fat and carbohydrate, although due to the differences in energy content between sucrose (˜4.0 kcal/g) and TAG (˜1.5 kcal/g), the TAG-containing diet provided relatively more calories from fat and protein. Before the sixteen week feeding period, sucrose and TAG were introduced to the experimental mice gradually over a three week period, using an increasing ratio of sucrose or TAG diet to the standard murine diet. Food intake was measured for the first four weeks of the sixteen week period and the body weight of the mice was measured weekly. […] At the study end point, retroperitoneal and epidydimal fat was dissected out of the body and stored in formalin and subsequently embedded in paraffin for examination of morphology and immunostaining. Total adipose tissue mass was increased in both male and female mice fed the diet enriched with sucrose when compared to mice fed murine or TAG-enriched diets. For characterization of adipocyte morphology, adipose tissue sections were deparrafinized and stained using hematoxylin and eosin and then analyzed using Image Pro Plus 5.1 (Media Cybernetics, Silver Spring, Md.). […] Macrophage positive F4/80 immunostaining was detected in adipose section from mice fed a sucrose-enriched diet but not in those fed standard murine or TAG-enriched diets.

For data set [2], the system named is LDLr-/- mice. In words: Serum cholesterol, triglyceride and lipoprotein concentrations in diet-fed mice (enzymatic assay kits). It is filed as in vivo. The settings on record: for total serum triglyceride concentration: end of study; for very low density lipoprotein and LDL cholesterol concentrations / total serum cholesterol concentration: male and female mice; for very low density lipoprotein and LDL cholesterol concentrations: compared to control mice; for total serum cholesterol concentration: sucrose vs standard murine and TAG diets, TAG vs sucrose-fed. The text has this: Low-density lipoprotein receptor male and female mice (LDLr^-/-) that were approximately eight weeks old were fed either a standard murine diet (“control”), a diet enriched with sucrose, or a diet enriched with TAG for sixteen weeks. The diets enriched with sucrose or TAG contained equivalents amounts (g/kg) of protein, fat and carbohydrate, although due to the differences in energy content between sucrose (˜4.0 kcal/g) and TAG (˜1.5 kcal/g), the TAG-containing diet provided relatively more calories from fat and protein. Before the sixteen week feeding period, sucrose and TAG were introduced to the experimental mice gradually over a three week period, using an increasing ratio of sucrose or TAG diet to the standard murine diet.
Total serum cholesterol and plasma triglyceride concentrations were determined for the individual mice at the end of the study using enzymatic assay kits (Wako Pure Chemical, Richmond, Va.).

The test system of data set [3] is LDLr-/- mice. The data set can be described thus: Atherosclerosis by en face lesion surface area, immunohistochemistry, infrared microscopy and Gomori Trichome staining. In kind it is in vivo. The settings on record: for concentration of lipids in atherosclerotic lesions: infrared microscopy of aortic lesions. From the text:
Low-density lipoprotein receptor male and female mice (LDLr^-/-) that were approximately eight weeks old were fed either a standard murine diet (“control”), a diet enriched with sucrose, or a diet enriched with TAG for sixteen weeks. The diets enriched with sucrose or TAG contained equivalents amounts (g/kg) of protein, fat and carbohydrate, although due to the differences in energy content between sucrose (˜4.0 kcal/g) and TAG (˜1.5 kcal/g), the TAG-containing diet provided relatively more calories from fat and protein. Before the sixteen week feeding period, sucrose and TAG were introduced to the experimental mice gradually over a three week period, using an increasing ratio of sucrose or TAG diet to the standard murine diet. At the study end point, mice were exsanguinated by perfusion through the left ventricle. Aortic tissues from the heart to the […] bifurcation were dissected and fixed overnight in 4% paraformaldehyde made with phosphate buffered solution (“PBS”) and then stored in PBS. Atherosclerosis was quantified by en face analysis of lesion surface area as detailed in Henriques, T A, et al., “Orchidectomy, but not ovariectomy, regulates angiotensin II-induced vascular diseases in apolipoprotein E-deficient mice,” Endocrinology, 145: 3866-3872 (2004). Atherosclerotic lesions were quantified by two independent observers. […] Macrophage infiltration into atherosclerotic areas was assessed using immunohistochemistry staining. […] Collagen may strengthen the fibrous caps in lipid-filled atheromas, preventing rupture.

For data set [4], the system named is human patients with type 2 diabetes. In words: Six-month oral TAG dosing study, HbA1c, serum triglycerides, LDL and HDL. It is filed as in vivo. The settings on record: for average reduction in serum triglycerides / average reduction in HbA1c from the HbA1c of the 2.5 g group: after six months; for decrease in average serum triglycerides from baseline: all TAG-consuming patients. On the procedure:
Thirty-eight human patients with type 2 diabetes were administered one of three concentrations of TAG orally with meals. […] The treatment duration was six months and patients were randomized to one of the three doses. […] Patients also had to go through an eight week run-in period in which they were on a weight-maintaining diet and a daily exercise program under the supervision of the investigator prior to receiving their TAG dose. Patients with a current or recent history of treatment with any oral or injectable anti-diabetic treatment, as well as patients having one or more episodes of severe hypoglycemia within six months prior to entry into the study, were excluded from the study. Blood samples were taken throughout the experiment and levels of HbAc1, serum triglycerides, LDLs and HDLs were measured.

The conditions of data set [5]: humans; cited from earlier work.

The structures appear in SMILES notation.

Turning to `O=C(CO)[C@@H](O)[C@@H](O)[C@H](O)CO` [TAG, (3S,4S,5R)-1,3,4,5,6-pentahydroxy-hexan-2-one], the “macrophage positive F4/80 immunostaining in adipose sections” value in the data set on LDLr-/- mice [1] was “not”. The figures for the body weight with LDLr-/- mice [1] (female LDLr-/- mice) and with LDLr-/- mice [1] (male LDLr-/- mice) were 24 ± 1 g and 27 ± 0 g, respectively. For the same compound, the adipocyte size was found to be 31±1 μm with LDLr-/- mice [1] (female mice) and 79±3 μm in the data set with LDLr-/- mice [1] (male mice). Further, the “development of obesity (weight gain, adiposity, adipocyte hypertrophy)” value in the data set on LDLr-/- mice [1] is listed as “did not promote substantial weight gain, enhanced adiposity or adipocyte hypertrophy”. In addition, the “total serum triglyceride concentration” value in the data set with LDLr-/- mice [2] (female mice) stood at 54 ± 8 mg/dL; in the data set on LDLr-/- mice [2] (male mice) it was 162 ± 29 mg/dL. Also, the “very low density lipoprotein and LDL cholesterol concentrations” value in the data set on LDLr-/- mice [2] is recorded as “only slightly elevated”. Also, in the data set on LDLr-/- mice [2], the “total serum cholesterol concentration” value is recorded as “decreased”. In addition, the “concentration of collagen in atherosclerotic lesions” value in the data set with LDLr-/- mice [3] (Gomori Trichome staining, compared to sucrose-fed mice) is “higher concentration”. Moreover, the “rate of atherosclerosis compared to control mice” value with LDLr-/- mice [3] (female mice) was “slightly higher”. In the data set on LDLr-/- mice [3], the “concentration of lipids in atherosclerotic lesions” value is “intermediate amount”. For the same compound, in the data set on LDLr-/- mice [3] (male mice), the “amount of atherosclerosis compared to control mice” value was “did not exhibit a significantly different amount”. Further, the “average improvement of LDL:HDL ratio” value in data set [4] (2.5 g and 5 g groups) was 0.3. Further, the “average reduction in serum triglycerides” value in data set [4] (2.5 g group) came to 22.2 mg/dL; in data set [4] (5 g group), 96.8 mg/dL; in data set [4] (7.5 g group), 2.8 mg/dL. For the same compound, the “decrease in LDL levels” value is given as “about 12.3 mg/dl” in data set [4] (2.5 g group, end of the first month) and “about 23.8 mg/dl” in data set [4] (5 g group, end of the first month). Further, the “average reduction in HbA1c from the HbA1c of the 2.5 g group” value is reported as 0.05% in data set [4] (5 g group) and 0.3% in data set [4] (7.5 g group). Further, the “decrease in average serum triglycerides from baseline” value in data set [4] (end of six months) was “about 41 mg/dl”; in data set [4] (end of the first month) it was “about 59 mg/dl”. In data set [4] (all patients, end of the first month), the “average decrease in serum LDL” value is listed as “about 13 mg/dl”. Besides, the “serum HDL change” value in data set [4] (end of the first month) is given as “essentially unchanged”. The “fraction of ingested substance absorbed into the bloodstream” value in data set [5] is “about 25%”.
Turning to `OC[C@H]1O[C@@](CO)(O[C@H]2O[C@H](CO)[C@@H](O)[C@H](O)[C@H]2O)[C@@H](O)[C@@H]1O` [sucrose, reference compound], in the data set with LDLr-/- mice [1], the “macrophage positive F4/80 immunostaining in adipose sections” value is “detected”. In addition, the figures for the body weight in the data set with LDLr-/- mice [1] (female LDLr-/- mice) and in the data set with LDLr-/- mice [1] (male LDLr-/- mice) were 31 ± 1 g and 40 ± 2 g, respectively. Further, the results for the adipocyte size in the data set on LDLr-/- mice [1] (female mice) and with LDLr-/- mice [1] (male mice) were 50±1 μm and 83±3 μm, respectively. In addition, in the data set with LDLr-/- mice [1] (male and female mice, compared to murine or TAG-enriched diets), the “total adipose tissue mass” value was “increased”. The “development of obesity (weight gain, adiposity, adipocyte hypertrophy)” value with LDLr-/- mice [1] was “promotes the development of obesity”. Further, the “total serum triglyceride concentration” value was determined as 326 ± 37 mg/dL in the data set on LDLr-/- mice [2] (female mice) and 822 ± 148 mg/dL in the data set with LDLr-/- mice [2] (male mice). Besides, the “very low density lipoprotein and LDL cholesterol concentrations” value with LDLr-/- mice [2] was “significantly elevated”. The “total serum cholesterol concentration” value with LDLr-/- mice [2] is recorded as “markedly increased”. The “macrophage infiltration and lesion size in aortic roots” value with LDLr-/- mice [3] (immunohistochemistry, compared to TAG-fed mice) is “larger degree of macrophage infiltration and larger lesions”. The “concentration of lipids in atherosclerotic lesions” value with LDLr-/- mice [3] is given as “highest concentration”. Further, in the data set with LDLr-/- mice [3] (male and female mice, compared to TAG-fed mice), the “number and size of atherosclerotic lesions in aortic roots” value is “greater number and size”. In addition, the atherosclerotic surface area result in the data set on LDLr-/- mice [3] (male and female mice, compared to control and TAG-enriched diet) is listed as “striking increase”.
